Results: patent US20070010489A1 (priority 2002, published 2007)

How the values were obtained:
[1] = test system: Recombinant HIV-1 Strains With Resistance Mutations in the Protease Gene; assay: Cross-Resistance Profile Assay, whole panel; format: cell-based; conditions: resistance = 5-fold and higher change in EC50 vs wild type; 11 mutant viruses
[2] = test system: PBMC in human whole blood
[3] = test system: recombinant HIV-1 46I/47V/50V; assay: microbe, parasite or virus in culture; format: cell-based; conditions: Human immunodeficiency virus 1, read-out: Cell-based assay (MT-4) EC50/nM 46I50V
84V90M = 84V90M (Human immunodeficiency virus type 1 group M subtype B, UniProt P04585, I572V/L578M); assay: biochemical; format: biochemical, HIV; conditions: Enzymatic assay
[4] = test system: recombinant HIV-1 10I/48V/71V/82A/90M; assay: microbe, parasite or virus in culture; format: cell-based; conditions: Human immunodeficiency virus 1, read-out: Cell-based assay (MT-4) EC50/nM 48V82A90M
WT HIV-1 = assay: microbe, parasite or virus in culture; conditions: Human immunodeficiency virus 1, read-out: Cell-based assay (MT-4) EC50/nM WT
[5] = test system: recombinant HIV-1 30N/50S/82I/88D; assay: microbe, parasite or virus in culture; format: cell-based; conditions: Human immunodeficiency virus 1, read-out: Cell-based assay (MT-4) EC50/nM 30N82I88D
[6] = test system: recombinant HIV-1 10I/48V/54V/82A; assay: microbe, parasite or virus in culture; format: cell-based; conditions: Human immunodeficiency virus 1, read-out: Cell-based assay (MT-4) EC50/nM 48V54V82A
[7] = test system: mutant HIV-1 with I84V/L90M mutations; assay: microbe, parasite or virus in culture; format: cell-based
[8] = test system: recombinant HIV-1 48V/54V/71V/82S; assay: microbe, parasite or virus in culture; format: cell-based; conditions: Human immunodeficiency virus 1, read-out: Cell-based assay (MT-4) EC50/nM 48V54V82S
in vitro = conditions: human, CC50 (μM)

CCOC(=O)C(C)NP(=O)(COc1ccc(CC(NC(=O)OC2COC3OCCC23)C(O)CN(CC(C)C)S(=O)(=O)c2ccc(OC)cc2)cc1)Oc1ccccc1 (stereo not drawn) [GS-16571]
Total No. of Resistant Viruses [1]: 0
Major Intracellular Metabolites [2]: X,GS-8373

CCOP(=O)(CCNC(=O)Oc1ccc(CC2C(O)C(O)C(Cc3ccc(OC)cc3)N(Cc3cccc(N)c3)C(=O)N2Cc2cccc(N)c2)cc1)OCC (stereo not drawn) [OCH3, Ph-mNH2, OCONH(CH2)2PO3Et2]
EC50 [3]: 184 nM
IC50 (84V90M): 116 nM
EC50 [4]: 215 nM
EC50 (WT HIV-1): 74 nM
EC50 [5]: 77 nM
EC50 [6]: 262 nM
EC50 ([7]; Human immunodeficiency virus 1, read-out: Cell-based assay (MT-4) EC50/nM 84V90M): 2260 nM
EC50 [8]: 214 nM

CCOP(=O)(COc1ccc(CC(NC(=O)OC2COC3OCCC23)C(O)CN(CC(C)C)S(=O)(=O)c2ccc(OC)cc2)cc1)OCC (stereo not drawn) [drawing 1768 R1=OEt R2=OEt]
CC50 (in vitro): 5 to 50 µM
I84V/L90M fold change ([7]; fold difference in EC50 mutant vs wild type, class symbols): − (≦3)
